Residue numbers refer to the chain shown, from its start.
Columns and labels:
[1] = molecular target: T1, Ba/F3 cell lines stably expressing human FLT3-ITD (Homo sapiens, UniProt P36888, cells depend on it, form not given); experiment: FLT3 mutant assay, cell viability, Ba/F3-FLT3-ITD; format: cell-based, mouse; settings: IC50 (3 days), CellTiter-Glo; read-out: Ba/F3-FLT3-ITD Relative IC50
T1 sequence (P36888 1-993): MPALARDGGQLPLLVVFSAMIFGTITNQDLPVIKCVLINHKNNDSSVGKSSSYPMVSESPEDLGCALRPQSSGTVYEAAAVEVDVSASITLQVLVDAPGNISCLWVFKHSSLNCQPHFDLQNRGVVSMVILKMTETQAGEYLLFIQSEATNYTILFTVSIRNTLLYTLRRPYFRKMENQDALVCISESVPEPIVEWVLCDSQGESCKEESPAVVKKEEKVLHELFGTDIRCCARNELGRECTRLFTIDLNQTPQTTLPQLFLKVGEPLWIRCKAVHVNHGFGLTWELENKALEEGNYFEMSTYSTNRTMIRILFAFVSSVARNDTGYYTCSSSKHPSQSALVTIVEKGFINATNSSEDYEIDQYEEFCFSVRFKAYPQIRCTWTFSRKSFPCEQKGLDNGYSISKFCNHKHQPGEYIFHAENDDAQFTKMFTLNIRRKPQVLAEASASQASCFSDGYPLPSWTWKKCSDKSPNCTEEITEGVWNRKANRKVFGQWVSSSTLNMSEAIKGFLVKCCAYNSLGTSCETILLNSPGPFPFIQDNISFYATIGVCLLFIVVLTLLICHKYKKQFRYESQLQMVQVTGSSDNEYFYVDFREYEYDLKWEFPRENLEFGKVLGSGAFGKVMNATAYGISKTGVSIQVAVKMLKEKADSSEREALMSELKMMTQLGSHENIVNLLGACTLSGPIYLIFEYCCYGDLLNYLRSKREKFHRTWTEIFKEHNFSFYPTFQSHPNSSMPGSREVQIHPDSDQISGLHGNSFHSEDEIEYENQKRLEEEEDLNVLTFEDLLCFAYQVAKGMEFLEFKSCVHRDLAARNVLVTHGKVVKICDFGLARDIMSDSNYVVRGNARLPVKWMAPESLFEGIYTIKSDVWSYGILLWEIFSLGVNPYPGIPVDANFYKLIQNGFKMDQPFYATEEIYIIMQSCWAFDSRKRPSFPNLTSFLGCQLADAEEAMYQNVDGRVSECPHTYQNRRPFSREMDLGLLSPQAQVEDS
Description: (§1) Activity of compounds on FLT3 activating mutations were assessed using Ba/F3 cell lines (mouse pro-B cell line) stably expressing human FLT3-ITD, FLT3-ITD-D835Y or FLT3-ITD-F691L. […] The supernatant collected were concentrated with PEG8000 and used to infect Ba/F3 cells at 1-5 MOI in serum-free media with polybrene. Infected Ba/F3 cells were selected in presence of puromycin, and surviving cells verified by sequencing and/or protein detection assay. Constitutive expression of the activating kinase transforms the Ba/F3 cells into IL-3-independent growth allowing them to be cultured in the absence of IL-3. […] For use in compound testing, cells in exponential growth phase were harvested, counted, and resuspended at the required cell density. Cell viability assays were performed in 96-well assay plates and 90 μL of cell suspension seeded per well. Serial dilutions of the test compounds and assay controls and were freshly prepared for the assay. Nine-point 3× serial dilutions were prepared in 100% DMSO (400× stock) and subsequently diluted in cell culture media to obtain 10× stocks. Ten microliters of the 10× stock serial dilutions were added to the appropriate wells (triplicate wells per condition) in the assay plate. […] Assay plates were incubated for 3 days in at 37° C. in a humidified incubator with 5% CO2.
(§2) Inhibition rate (IR) of the tested compounds was determined by the following formula: IR (%)=(1−(RLU compound−RLU blank)/(RLU control−RLU blank))*100%. The inhibitions of different dose of compound were calculated in Excel file, and the dose responses were analysed using GraphPad Prism to evaluate related parameters, such as Bottom, Top and IC50. For the IC50 analysis by GraphPad Prism, the equation below was used to fit curve: Y=Bottom+(Top−Bottom)/(1+10^((LogIC50−X)*HillSlope))

[2] = molecular target: T2, Ba/F3 cell lines stably expressing human FLT3-ITD-D835Y (Homo sapiens, UniProt P36888, D835Y, cells depend on it, form not given); experiment: FLT3 mutant assay, cell viability, Ba/F3-FLT3-ITD-D835Y; format: cell-based, mouse; settings: IC50 (3 days), CellTiter-Glo; read-out: Ba/F3-FLT3-ITD-D835Y Relative IC50
T2 construct: Ba/F3-FLT3-ITD-D835Y Relative IC50
T2 sequence (P36888 1-993 D835Y): T1 sequence (P36888 1-993) with D835Y
Description: as §1, §2

Row | SMILES | GI50 [1] | GI50 [2]
1 | CCc1nc(C(N)=O)c(Nc2cccc(CCNC(=O)[C@H](C)N(C)C(=O)/C=C/CN(C)C)c2)nc1N(C)C(C)C [Compound 204, (S,E)-3-((3-(2-(2-(4-(dimethylamino)-N-methylbut-2-enamido)propanamido)ethyl)phenyl)amino)-6-ethyl-5-(isopropyl(methyl)amino)pyrazine-2-carboxamide] | 1 to 10 nM | 1 to 10 nM
2 | CCc1nc(C(N)=O)c(Nc2cccc(CCNC(=O)[C@H](C)N(C)C(=O)/C=C/CN(C)C)c2)nc1NC(C)C [Compound 205, (S,E)-3-((3-(2-(2-(4-(dimethylamino)-N-methylbut-2-enamido)propanamido)ethyl)phenyl)amino)-6-ethyl-5-(isopropylamino)pyrazine-2-carboxamide] | < 1 nM | 1 to 10 nM
3 | CCc1nc(C(N)=O)c(Nc2cccc(CCNC(=O)CN(C)C(=O)/C=C/CN(C)C)c2)nc1C1CC1 [Compound 219, (E)-5-cyclopropyl-3-((3-(2-(2-(4-(dimethylamino)-N-methylbut-2-enamido)acetamido)ethyl)phenyl)amino)-6-ethylpyrazine-2-carboxamide] | 1 to 10 nM | 10 to 100 nM
4 | Cc1nc(C(N)=O)c(Nc2cccc(CCNC(=O)[C@H](C)N(C)C(=O)/C=C/CN(C)C)c2)nc1N(C)C(C)C [Compound 232, (S, E)-3-((3-(2-(2-(4-(dimethylamino)-N-methylbut-2-enamido)propanamido)ethyl)phenyl)amino)-5-(isopropyl (methyl)amino)-6-methylpyrazine-2-carboxamide] | 1 to 10 nM | 10 to 100 nM
5 | Cc1nc(C(N)=O)c(Nc2cccc(CCNC(=O)CN(C)C(=O)/C=C/CN(C)C)c2)nc1N(C)C(C)C [Compound 250, (E)-3-((3-(2-(2-(4-(dimethylamino)-N-methylbut-2-enamido)acetamido)ethyl)phenyl)amino)-5-(isopropyl(methyl)amino)-6-methylpyrazine-2-carboxamide] | 1 to 10 nM | 10 to 100 nM
6 | CCc1nc(C(N)=O)c(Nc2cccc(CCNC(=O)CN(C)C(=O)/C=C/CN(C)C)c2)nc1N(C)CC [Compound 252, (E)-3-((3-(2-(2-(4-(dimethylamino)-N-methylbut-2-enamido)acetamido)ethyl)phenyl)amino)-6-ethyl-5-(ethyl (methyl)amino) pyrazine-2-carboxamide] | < 1 nM | 1 to 10 nM
7 | CCc1nc(C(N)=O)c(Nc2cccc(CCNC(=O)[C@H](C)N(C)C(=O)/C=C/CNC)c2)nc1N(C)C(C)C [Compound 307, (S,E)-6-ethyl-5-(isopropyl(methyl)amino)-3-((3-(2-(2-(N-methyl-4-(methylamino)but-2-enamido)propanamido)ethyl)phenyl)amino)pyrazine-2-carboxamide] | 1 to 10 nM | 10 to 100 nM
8 | CCc1nc(C(N)=O)c(Nc2ccnc(CCNC(=O)[C@H](C)N(C)C(=O)/C=C/CN(C)C)c2)nc1C1CC1 [Compound 310, (S,E)-5-cyclopropyl-3-((2-(2-(2-(4-(dimethylamino)-N-methylbut-2-enamido)propanamido)ethyl)pyridin-4-yl)amino)-6-ethylpyrazine-2-carboxamide] | 1 to 10 nM | 10 to 100 nM
9 | CCc1nc(C(N)=O)c(Nc2cccc([C@@H](C)CNC(=O)CN(C)C(=O)/C=C/CN(C)C)c2)nc1C1CC1 [Compound 504, (R,E)-5-cyclopropyl-3-((3-(1-(2-(4-(dimethylamino)-N-methylbut-2-enamido)acetamido)propan-2-yl)phenyl)amino)-6-ethylpyrazine-2-carboxamide] | 1 to 10 nM | 10 to 100 nM
10 | CCc1nc(C(N)=O)c(Nc2cccc([C@@H](C)CNC(=O)CN(C)C(=O)/C=C/CN3CCC3)c2)nc1C1CC1 [Compound 506, (R,E)-3-((3-(1-(2-(4-(azetidin-1-yl)-N-methylbut-2-enamido)acetamido)propan-2-yl)phenyl)amino)-5-cyclopropyl-6-ethylpyrazine-2-carboxamide] | 1 to 10 nM | 10 to 100 nM
11 | CCCc1nc(Nc2cccc([C@@H](C)CNC(=O)CN(C)C(=O)/C=C/CN3CCC3)c2)c(C(N)=O)nc1CC [Compound 507, (R,E)-3-((3-(1-(2-(4-(azetidin-1-yl)-N-methylbut-2-enamido)acetamido)propan-2-yl)phenyl)amino)-6-ethyl-5-propylpyrazine-2-carboxamide] | 1 to 10 nM | 10 to 100 nM
12 | CCc1nc(Nc2cccc([C@@H](C)CNC(=O)CN(C)C(=O)/C=C/CN3CCC3)c2)c(C(N)=O)nc1CC [Compound 508, (R, E)-3-((3-(1-(2-(4-(azetidin-1-yl)-N-methylbut-2-enamido)acetamido)propan-2-yl)phenyl)amino)-5,6-diethylpyrazine-2-carboxamide] | 1 to 10 nM | 10 to 100 nM
13 | CCc1nc(C(N)=O)c(Nc2cc(F)cc(CCNC(=O)CN(C)C(=O)/C=C/CN3CCC3)c2)nc1C1CC1 [Compound 516, (E)-3-((3-(2-(2-(4-(azetidin-1-yl)-N-methylbut-2-enamido)acetamido)ethyl)-5-fluorophenyl)amino)-5-cyclopropyl-6-ethylpyrazine-2-carboxamide] | 1 to 10 nM | 10 to 100 nM
14 | CCc1nc(C(N)=O)c(Nc2cccc(CCNC(=O)CN(C)C(=O)/C=C/CN3CCC3)c2)nc1N(C)CC [Compound 516A, (E)-3-((3-(2-(2-(4-(azetidin-1-yl)-N-methylbut-2-enamido)acetamido)ethyl)phenyl)amino)-6-ethyl-5-(ethyl(methyl)amino) pyrazine-2-carboxamide] | 1 to 10 nM | 10 to 100 nM
15 | CCc1nc(C(N)=O)c(Nc2ccc(N3CCC(N4CCN(C)CC4)CC3)c(OC)c2)nc1NC1CCOCC1 [Gilteritinib, gilteritinib, reference compound] | – | 10 to 100 nM

Source: patent US20240262795A1, “PYRAZINE COMPOUNDS AS INHIBITORS OF FLT3” (Biomea Fusion, Inc., priority 2021, published 2024)
